Laboratory results: patent publication US9586959B2, “Substituted tricyclic heterocycles as histamine 4 receptor inhibitors” (C&C RESEARCH LABORATORIES, priority 2011, dated 2017)
In brackets after ≈: the same amount, converted by molar mass.

Assays:
[1] = target: human histamine 4 receptor (hH4R) (Homo sapiens (Human), UniProt Q9H3N8); assay: Binding affinity of human histamine 4 receptor (hH4R), [3H] labeled histamine displacement; conditions: hH4R-overexpressed cell membrane, [3H] histamine
Description: 20 μL of the prepared compound solution was transferred to each well of a 96-well plate, and then 20 μL of 100 μM histamine diluted with analysis buffer solution and 1% DMSO were transferred to each well to calculate non-specific binding and total binding degree. 25 μg of human histamine 4 receptor-overexpressed cell membrane (PerkinElmer) was diluted into 160 μL of analysis buffer solution and that was transferred to each well. [^3H] labeled histamine (PerkinElmer) was diluted into 1 μM concentration, 20 μL was allocated in each well, and then it was kept in a 27° C. incubator for 30 minutes. After the reaction, 200 μL of the mixture was transferred to a glass fiber plate in which 0.5% polyethylene amine was presoaked, and then non-binding [^3H] labeled histamine was removed in vacuum. After 4 times washing with 200 μL of washing buffer solution (50 mM tris-HCl, pH 7.4), the plate was dried in a 37° C. oven for 18 hours. 100 μL of betascint cocktail solution was added to each well, and after 1 hour CPM (count per minute) value of [^3H] labeled histamine was measured by using Wallac beta-counter TriLux.

[2] = target: human histamine 3 receptor (hH3R) (Homo sapiens (Human), UniProt Q9Y5N1); assay: Binding affinity of human histamine 3 receptor (hH3R), [3H] labeled N-α-methylhistamine displacement; conditions: hH3R-overexpressed cell membrane, [3H] N-α-methylhistamine
Description: 10 μL of the prepared compound solution was allocated in each well of a 96-well plate, and then 10 μL of 200 μM (R)(−)-α-methylhistamine (RaMH) diluted with analysis buffer and 1% of DMSO were transferred to each well to calculate non-specific binding and total binding degree. 15 μg of human histamine 3 receptor-overexpressed cell membrane (PerkinElmer) was diluted with 180 μL of analysis buffer solution (50 mM tris-HCl pH 7.4, 5 mM MgCl2), and that was transferred to each well. [^3H] labeled Na-methylhistamine (PerkinElmer) was diluted into […], 10 μL of that was added to each well, and then it was kept in a 27° C. incubator for 30 minutes. After the reaction, 200 μL of the mixture was transferred to a glass fiber plate in which 0.5% polyethylene amine was presoaked, and then non-binding [^3H] labeled Na-methylhistamine was removed in vacuum. After 5 times washing with 200 μL of washing buffer solution (50 mM tris-HCl, pH 7.4), the plate was dried in a 37° C. oven for 18 hours. 100 μL of betascint cocktail solution was added to each well, and after 1 hour CPM of [^3H] labeled N-α-methylhistamine was measured by using Wallac beta-counter TriLux. The binding affinity (IC50) of the human histamine 3 receptor for the present invention was analyzed by an Excel program, and the results of analysis are shown in Table 2.

[3] = Solubility in artificial gastrointestinal tract solution; assay type: physicochemical; conditions: artificial gastrointestinal tract solution, thermodynamic from solid; for solubility at 1 h: fassgf or other biorelevant, first solution pH 1.2, 2 mg/mL sample, 37° C. 1 hour; for solubility at 2 h: fassif, second solution pH 6.5, 2 mg/mL sample, 37° C. 2 hours
Description: 2.0 g of sodium chloride was added in 7.0 mL of 37% of hydrochloric acid and water to make the total volume of 1 L. The pH was adjusted to exactly 1.2 with 1N sodium hydroxide or 1N hydrochloric acid. A small amount (20 mL) of this solution was taken and added in 25 μL of triton X-100 to make the total volume of 25 mL.
0.348 g sodium hydroxide, 3.438 g NaH2PO4, 6.186 g sodium chloride and water were added to make the total volume of 1 L. The pH was adjusted to exactly 6.5 with 1N sodium hydroxide or 1N hydrochloric acid. A small amount (20 mL) of this solution was taken and 41.25 mg of sodium taurocholate hydrate and 25 μL of 750 mM lecithin dissolved in ethanol was added to make the total volume of 25 mL.
The heated test sample solutions were filtered to remove undissolved compounds therein. Finally, 100 μL of the completely compound-dissolved solution was sampled and 100 μL of CH3CN was added thereto to make the test sample solution. For each analysis of the test sample solution, the solubility was measured by using liquid chromatography.

Chain of human histamine 3 receptor (hH3R) (Q9Y5N1 whole entry): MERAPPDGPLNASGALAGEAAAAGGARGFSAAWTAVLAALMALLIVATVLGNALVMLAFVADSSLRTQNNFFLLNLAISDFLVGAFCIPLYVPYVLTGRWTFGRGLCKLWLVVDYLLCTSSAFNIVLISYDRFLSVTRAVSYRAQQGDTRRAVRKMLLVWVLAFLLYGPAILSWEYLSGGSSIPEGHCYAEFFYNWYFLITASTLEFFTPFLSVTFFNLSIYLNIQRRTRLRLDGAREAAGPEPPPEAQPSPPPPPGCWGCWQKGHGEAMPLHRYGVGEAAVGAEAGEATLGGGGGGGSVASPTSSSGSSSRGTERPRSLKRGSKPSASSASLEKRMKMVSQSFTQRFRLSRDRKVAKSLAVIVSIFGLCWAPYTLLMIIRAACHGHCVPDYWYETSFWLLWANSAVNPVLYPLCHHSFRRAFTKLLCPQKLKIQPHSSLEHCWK

| IC50 [1] | IC50 [2] | Structure (SMILES) | IC50 ([1]; 2,2,2-trifluoroacetate) | solubility at 1 h [3] | solubility at 2 h [3] |
| --- | --- | --- | --- | --- | --- |
| 314 nM | > 100000 nM | CNC1CN(c2nc3ncc(Cl)c(Cl)c3n3cnnc23)C1 [Compound 67, 1-(8,9-Dichloropyrido[2,3-e][1,2,4]triazolo[4,3-a]pyrazin-4-yl)-N-methylazetidin-3-amine] |  |  |  |
| 506 nM | > 100000 nM | Cc1cnc2nc(N3CCN(C)CC3)c3nncn3c2c1 [Compound 2, 8-Methyl-4-(4-methylpiperazin-1-yl)pyrido[2,3-e][1,2,4]triazolo[4,3-a]pyrazine] |  |  |  |
| 710 nM | > 100000 nM | CNC1CN(c2nc3ncc(C(F)F)cc3n3cnnc23)C1 [Compound 51, 1-(8-(Difluoromethyl)pyrido[2,3-e][1,2,4]triazolo[4,3-a]pyrazin-4-yl)-N-methylazetidin-3-amine] |  |  |  |
| 154 nM |  | CN1CCN(c2nc3ncc(Cl)cc3n3ccnc23)CC1 [Compound 46, 8-Chloro-4-(4-methylpiperazin-1-yl)imidazo[1,2-a]pyrido[2,3-e]pyrazine] |  | 1910 µg/mL (≈ 6.32 mM) | 1100 µg/mL (≈ 3.64 mM) |
| 240 nM | > 100000 nM | CN1CCN(c2nc3nc(OCC(F)(F)F)c(Cl)cc3n3cnnc23)CC1 [Compound 64, 8-Chloro-4-(4-methylpiperazin-1-yl)-7-(2,2,2-trifluoroethoxy)pyrido[2,3-e][1,2,4]triazolo[4,3-a]pyrazine] |  |  |  |
| 610 nM | > 100000 nM | COc1nc2nc(N3CCN(C)CC3)c3nncn3c2cc1Cl [Compound 60, 8-Chloro-7-methoxy-4-(4-methylpiperazin-1-yl)pyrido[2,3-e][1,2,4]triazolo[4,3-a]pyrazine] |  |  |  |
| 11 nM |  | Cc1nc2c(N3CCN(C)CC3)nc3ncc(Cl)cc3n2n1 [Compound 98, 8-Chloro-2-methyl-4-(4-methylpiperazin-1-yl)pyrido[2,3-e][1,2,4]triazolo[1,5-a]pyrazine] |  | 1700 µg/mL (≈ 5.36 mM) | 1090 µg/mL (≈ 3.44 mM) |
| 34 nM | > 100000 nM | CN1CCN(c2nc3ncc(I)cc3n3cnnc23)CC1 [Compound 49, 8-Iodo-4-(4-methylpiperazin-1-yl)pyrido[2,3-e][1,2,4]triazolo[4,3-a]pyrazine] |  |  |  |
| 260 nM | > 100000 nM | C=Cc1cnc2nc(N3CC(NC)C3)c3nncn3c2c1 [Compound 55, N-Methyl-1-(8-vinylpyrido[2,3-e][1,2,4]triazolo[4,3-a]pyrazin-4-yl)azetidin-3-amine] |  |  |  |
|  | > 100000 nM | CNC1CN(c2nc3ncc(Cl)cc3c3oc(C)nc23)C1 [Compound 91, 1-(8-Chloro-2-methyloxazolo[4,5-c][1,8]naphthylidine-4-yl)-N-methylazetidin-3-amine] |  | 1840 µg/mL (≈ 6.04 mM) | 1940 µg/mL (≈ 6.4 mM) |
| 210 nM | > 100000 nM | CNC1CN(c2nc3cnc(Cl)cc3n3cnnc23)C1 [Compound 117, 1-(8-chloropyrido[3,4-e][1,2,4]triazolo[4,3-a]pyrazin-4-yl)-N-methylazetidin-3-amine] |  |  |  |
| 231 nM | > 100000 nM | Cc1nc2nc(N3CCN(C)CC3)c3nncn3c2cc1Br [Compound 100, 8-bromo-7-methyl-4-(4-methylpiperazin-1-yl)pyrido[2,3-e][1,2,4]triazolo[4,3-a]pyrazine] |  |  |  |
| 28 nM |  | CN1CCN(c2nc3ncc(Br)cc3n3nnnc23)CC1 [Compound 96, 8-Bromo-4-(4-methylpiperazin-1-yl)pyrido[2,3-e]tetrazolo[1,5-a]pyrazine] |  |  |  |
| 580 nM | > 100000 nM | CCOc1nc2nc(N3CCNCC3)c3nncn3c2cc1Cl [Compound 63, 8-Chloro-7-ethoxy-4-(piperazin-1-yl)pyrido[2,3-e][1,2,4]triazolo[4,3-a]pyrazine] |  |  |  |
| 70 nM | 97000 nM | CN1CCN(c2nc3ncc(Cl)cc3c3cn(C)nc23)CC1 [Compound 43, 8-Chloro-2-methyl-4-(4-methylpiperazin-1-yl)-2H-pyrazolo[3,4-c][1,8]naphthylidine] |  |  |  |
| 170 nM |  | CN1CCN(c2nc3ncc(Cl)cc3c3ncnn23)CC1 [Compound 35, 9-Chloro-5-(4-methylpiperazin-1-yl)pyrido[3,2-e][1,2,4]triazolo[1,5-c]pyrimidine] |  |  |  |
| 140 nM | > 100000 nM | CCOc1nc2nc(N3CCN(C)CC3)c3nncn3c2cc1Cl [Compound 23, 8-Chloro-7-ethoxy-4-(4-methylpiperazin-1-yl)pyrido[2,3-e][1,2,4]triazolo[4,3-a]pyrazine] |  |  |  |
| 62 nM |  | CN1CCN(c2nc3ncc(Cl)cc3n3nnnc23)CC1 [Compound 94, 8-Chloro-4-(4-methylpiperazin-1-yl)pyrido[2,3-e]tetrazolo[1,5-a]pyrazine] |  |  |  |
| 300 nM |  | Cc1c(Br)cnc2nc(N3CCN(C)CC3)c3nncn3c12 [Compound 66, 8-Bromo-9-methyl-4-(4-methylpiperazin-1-yl)pyrido[2,3-e][1,2,4]triazolo[4,3-a]pyrazine] |  |  |  |
| 490 nM | > 100000 nM | CNC1CN(c2nc3nc(C#N)c(Cl)cc3n3cnnc23)C1 [Compound 28, 8-Chloro-4-(3-(methylamino)azetidin-1-yl)pyrido[2,3-e][1,2,4]triazolo[4,3-a]pyrazin-7-carbonitrile] |  |  |  |
| 618 nM |  | Clc1cnc2nc(N3CCNCC3)c3nccn3c2c1 [Compound 47, 8-Chloro-4-(piperazin-1-yl)imidazo[1,2-a]pyrido[2,3-e]pyrazine] |  |  |  |
|  | > 100000 nM | CN(C)[C@@H]1CCN(c2nc3ncc(Cl)cc3n3cnnc23)C1 [Compound 9, (R)-1-(8-chloropyrido[2,3-e][1,2,4]triazolo[4,3-a]pyrazin-4-yl)-N,N-dimethylpyrrolidin-3-amine] |  |  |  |
|  | > 100000 nM | CNC1CN(c2nc3ncc(Cl)cc3c3nc(C)nn23)C1 [Compound 33, 1-(9-Chloro-2-methylpyrido[3,2-e][1,2,4]triazolo[1,5-c]pyrimidin-5-yl)-N-methylazetidin-3-amine] |  |  |  |
|  | > 100000 nM | CNC1CN(c2nc3ncc(Cl)cc3c3cn(C)nc23)C1 [Compound 44, 1-(8-Chloro-2-methyl-2H-pyrazolo[3,4-c][1,8]naphthylidine-4-yl)-N-methylazetidin-3-amine] |  |  |  |
|  | > 100000 nM | CNC1CN(c2nc3ncc(O)cc3n3cnnc23)C1 [Compound 57, 4-(3-(Methylamino)azetidin-1-yl)pyrido[2,3-e][1,2,4]triazolo[4,3-a]pyrazin-8-ol] |  |  |  |
|  | > 100000 nM | CNC1(C)CN(c2nc3ncc(Br)cc3n3cnnc23)C1 [Compound 73, 1-(8-Bromopyrido[2,3-e][1,2,4]triazolo[4,3-a]pyrazin-4-yl)-N,3-dimethylazetidin-3-amine] |  |  |  |

| Structure (SMILES) | IC50 [1] | IC50 [2] | IC50 ([1]; 2,2,2-trifluoroacetate) | solubility at 1 h [3] | solubility at 2 h [3] |
| --- | --- | --- | --- | --- | --- |
| CNC1CN(c2nc3ncc(Br)cc3n3cnnc23)C1.O=C(O)C(F)(F)F [Compound 104, 1-(8-bromopyrido[2,3-e][1,2,4]triazolo[4,3-a]pyrazin-4-yl)-N-methylazetidin-3-amine 2,2,2-trifluoroacetate] |  | > 100000 nM | 30 nM | 1510 µg/mL | 1560 µg/mL |
| Brc1cnc2nc(N3CCN4CCCC4C3)c3nncn3c2c1 (stereo not shown) [Compound 74, 8-Bromo-4-(hexahydropyrrolo[1,2-a]pyrazin-2(1H)-yl)pyrido[2,3-e][1,2,4]triazolo[4,3-a]pyrazine] | 60 nM |  |  | 1530 µg/mL (≈ 4.08 mM) | 646 µg/mL (≈ 1.73 mM) |
| Ic1cnc2nc(N3CCN4CCCC4C3)c3nncn3c2c1 (stereo not shown) [Compound 75, 4-(Hexahydropyrrolo[1,2-a]pyrazin-2(1H)-yl)-8-iodopyrido[2,3-e][1,2,4]triazolo[4,3-a]pyrazine] | 64 nM |  |  | 2000 µg/mL (≈ 4.76 mM) | 723 µg/mL (≈ 1.72 mM) |
